Test results: patent US8916708B2, “Urea derivatives and their therapeutic use in the treatment of, inter alia, diseases of the respiratory tract” (Chiesi Farmaceutici S.p.A., priority 2010, dated 2014)

Tests used:
[1] = molecular target: T1, Human recombinant p38 enzyme (p38α) (Homo sapiens, UniProt Q16539); experiment: p38 Kinase Assay (ATF-2 phosphorylation ELISA); format: biochemical; details: 2h pre-incubation with p38 kinase, ATP 250 μM, 1% DMSO; read-out: p38α inhibition (IC50)
T1 construct: purchased Calbiochem 559324; host or cells: E. coli
Description: Human recombinant p38 enzyme expressed in E. coli and activated by incubation with MKK6 enzyme (Calbiochem #559324) is used as source of enzyme activity.
The assay is carried in high binding, clear, flat bottom 96 well assay plates which have been coated with recombinant ATF-2 (Biosource #PHF0043). Test compounds are incubated with p38 kinase for 2h prior to initiating the kinase assay by the addition of ATP to obtain an assay concentration of 250 μM . Phosphorylation of ATF-2 is detected and quantified using an ELISA. This consists of sequential incubation in the presence of anti-phospho-ATF2, biotinylated anti-IgG and streptavidin-HRP. Incubation with an HRP chromogenic substrate (TMB) results in absorbance that is proportional to the amount of phosphorylated substrate produced. Absorbance is detected using a multiwell plate reader.
Compounds are diluted in DMSO prior to addition to assay buffer, the final DMSO concentration in the assay being 1%.
The IC50 is defined as the concentration at which a given compound achieves 50% inhibition of control.

[2] = system: LPS activated THP-1 cells (TNFα release); experiment: p38 Functional Assay: TNFα release from LPS activated THP-1 cells; format: cell-based; details: Homo sapiens, inhibition of TNFα release, 1h pre-treatment then LPS, 0.3% DMSO
Description: Inhibition of cellular p38 depresses the release of TNFα, a functional response which is quantified by measurement of the amount of TNFα in the supernatants of LPS activated THP-1 cells (an immortalised monocytic cell line) or peripheral blood mononuclear cells (PBMC's) isolated from freshly drawn human blood.
Cells seeded in 96 well plates are pre-treated by the addition of p38 inhibitors for 1h followed by addition of lipopolysaccharide (LPS) to activate cytokine production and release. The amount of TNFα released into the cell supernatants is quantified using an R&D Systems enzyme linked immunosorbant assay (ELISA) kit (product DY210) following the manufacturers instructions.
Compounds are diluted in DMSO prior to addition, the final DMSO concentration in the assay being 0.3%. The EC50 is defined as the concentration at which a given compound achieves 50% inhibition of the control.

T1 sequence (Q16539 whole entry): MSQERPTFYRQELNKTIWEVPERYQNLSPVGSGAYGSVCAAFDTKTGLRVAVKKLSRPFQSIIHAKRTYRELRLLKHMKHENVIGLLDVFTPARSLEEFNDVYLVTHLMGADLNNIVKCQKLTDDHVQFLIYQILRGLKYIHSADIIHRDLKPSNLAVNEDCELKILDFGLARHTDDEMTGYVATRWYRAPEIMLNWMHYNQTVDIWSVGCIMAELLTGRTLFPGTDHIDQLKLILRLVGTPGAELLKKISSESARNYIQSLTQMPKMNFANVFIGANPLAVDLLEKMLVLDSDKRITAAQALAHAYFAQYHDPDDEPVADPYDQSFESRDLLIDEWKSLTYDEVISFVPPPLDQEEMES

In the case of Cc1ccc(-n2nc(C(C)(C)C)cc2NC(=O)N[C@H]2CC[C@@H](Oc3ccc4nnc(C(C)C)n4c3)c3ccccc32)cc1 (racemic) [Example 1, (+/−) 1-(5-tert-Butyl-2-p-tolyl-2H-pyrazol-3-yl)-3-[4-(3-isopropyl-[1,2,4]-triazolo[4,3-a]pyridin-6-yloxy)-cis-1,2,3,4-tetrahydro-naphthalen-1-yl]-urea], the IC50 [1] is reported as < 10 nM and the EC50 [2] is reported as < 10 nM.

With Cc1ccc(-n2nc(C(C)(C)C)cc2NC(=O)N[C@H]2CC[C@H](Oc3ccc4nnc(C(C)C)n4c3)c3ccccc32)cc1 (racemic) [Example 2, (+/−) 1-(5-tert-Butyl-2-p-tolyl-2H-pyrazol-3-yl)-3-[4-(3-isopropyl[1,2,4]triazolo[4,3-a]pyridin-6-yloxy)-trans-1,2,3,4-tetrahydro-naphthalen-1-yl]-urea] the IC50 [1] was < 10 nM and the EC50 [2] was < 10 nM.

For Cc1ccc(-n2nc(C(C)(C)C)cc2NC(=O)N[C@H]2CC[C@@H](Oc3ccc4nnc(-c5ccccc5Cl)n4c3)c3ccccc32)cc1 (racemic) [Example 3, (+/−)1-(5-tert-Butyl-2-p-tolyl-2H-pyrazol-3-yl)-3-{4-[3-(2-chloro-phenyI)-[1,2,4]triazolo[4,3-a]pyridin-6-yloxy]-cis-1,2,3,4-tetrahydro-naphthalen-1-yl}-urea], the IC50 [1] was < 10 nM and the EC50 [2] was < 10 nM.

In the case of Cc1ccc(-n2nc(C(C)(C)C)cc2NC(=O)N[C@H]2CC[C@@H](Oc3ccc4nnc(-c5c(Cl)cccc5Cl)n4c3)c3ccccc32)cc1 (racemic) [Example 4, (+/−)1-(5-tert-Butyl-2-p-tolyl-2H-pyrazol-3-yl)-3-{4-[3-(2,6-dichloro-phenyl)[1,2,4]triazolo[4,3-a]pyridin-6-yloxy]-cis-1,2,3,4-tetrahydro-naphthalen-1-yl}-urea], the IC50 [1] is reported as < 10 nM and the EC50 [2] is reported as < 10 nM.

Work on Cc1ccc(-n2nc(C(C)(C)C)cc2NC(=O)N[C@H]2CC[C@@H](Oc3ccc4nnc(-c5ccccc5OCc5ccccc5)n4c3)c3ccccc32)cc1 (racemic) [Example 5] yielded an IC50 [1] of 10 to 100 nM.

CC(C)c1nnc2ccc(O[C@@H]3CC[C@H](NC(=O)Nc4cc(C(C)(C)C)on4)c4ccccc43)cn12 (racemic) [Example 6, (+/−) 1-(5-tert-Butyl-isoxazol-3-yl)-3-[4-(3-isopropyl-[1,2,4]triazolo[4,3-a]pyridin-6-yloxy)-cis-1,2,3,4-tetrahydro-naphthalen-1-yl]-urea] was tested, and the IC50 [1] was < 10 nM and the EC50 [2] was < 10 nM.

With Cc1ccc(-n2nc(C(C)(C)C)cc2NC(=O)N[C@H]2CC[C@@H](Oc3ccc4nnc(-c5ccccc5O)n4c3)c3ccccc32)cc1 (racemic) [Example 7, (+/−) 1-(5-tert-Butyl-2-p-tolyl-2H-pyrazol-3-yl)-3-{4-[3-(2-hydroxy-phenyl) [1,2,4]triazolo[4,3-a]pyridin-6-yloxy]-cis-1,2,3,4-tetrahydro-naphthalen-1-yl}-urea] the IC50 [1] was < 10 nM and the EC50 [2] was < 10 nM.

In the case of Cc1ccc(-n2nc(C(C)(C)C)cc2NC(=O)N[C@H]2CCC[C@@H](Oc3ccc4nnc(C(C)C)n4c3)c3ccccc32)cc1 (racemic) [Example 18, (+/−) 1-(5-tert-Butyl-2-p-tolyl-2H-pyrazol-3-yl)-3-[9-(3-isopropyl-[1,2,4]triazolo[4,3-a]pyridin-6-yloxy)-cis-6,7,8,9-tetrahydro-5H-benzocyclohepten-5-yl]-urea], the IC50 [1] is reported as 10 to 100 nM.

Compound Cc1ccc(-n2nc(C(C)(C)C)cc2NC(=O)N[C@H]2CCC[C@H](Oc3ccc4nnc(C(C)C)n4c3)c3ccccc32)cc1 (racemic) [Example 19, (+/−) 1-(5-tert-Butyl-2-p-tolyl-2H-pyrazol-3-yl)-3-[9-(3-isopropyl-[1,2,4]triazolo[4,3-a]pyridin-6-yloxy)-trans-6,7,8,9-tetrahydro-5H-benzocyclohepten-5-yl]-urea] has an IC50 [1] of 10 to 100 nM.

Work on Cc1ccc(-n2nc(C(C)(C)C)cc2NC(=O)N[C@@H]2CC[C@@H](Oc3ccc4nnc(C(C)C)n4c3)c3ccccc32)cc1 [Example 8, 1-(5-tert-Butyl-2-p-tolyl-2H-pyrazol-3-yl)-3-[(1R,4R)-4-(3-isopropyl-[1,2,4]triazolo[4,3-a]pyridin-6-yloxy)-1,2,3,4-tetrahydro-naphthalen-1-yl]-urea] yielded an IC50 [1] of 100 to 500 nM.

Cc1ccc(-n2nc(C(C)(C)C)cc2NC(=O)N[C@@H]2CC[C@H](Oc3ccc4nnc(C(C)C)n4c3)c3ccccc32)cc1 [Example 9, 1-(5-tert-Butyl-2-p-tolyl-2H-pyrazol-3-yl)-3-[(1R,4S)-4-(3-isopropyl-[1,2,4]triazolo[4,3-a]pyridin-6-yloxy)-1,2,3,4-tetrahydro-naphthalen-1-yl]-urea] gave an IC50 [1] of 100 to 500 nM.

Cc1ccc(-n2nc(C(C)(C)C)cc2NC(=O)N[C@H]2CC[C@@H](Oc3ccc4nnc(C(C)C)n4c3)c3ccccc32)cc1 [Example 10, 1-(5-tert-Butyl-2-p-tolyl-2H-pyrazol-3-yl)-3-[(1S,4R)-4-(3-isopropyl-[1,2,4]triazolo[4,3-a]pyridin-6-yloxy)-1,2,3,4-tetrahydro-naphthalen-1-yl]-urea] was tested, and the IC50 [1] was < 10 nM and the EC50 [2] was < 10 nM.

Cc1ccc(-n2nc(C(C)(C)C)cc2NC(=O)N[C@H]2CC[C@H](Oc3ccc4nnc(C(C)C)n4c3)c3ccccc32)cc1 [Example 11, 1-(5-tert-Butyl-2-p-tolyl-2H-pyrazol-3-yl)-3-[(1S,4S)-4-(3-isopropyl-[1,2,4]triazolo[4,3-a]pyridin-6-yloxy)-1,2,3,4-tetrahydro-naphthalen-1-yl]-urea] was tested, and the IC50 [1] was < 10 nM and the EC50 [2] was < 10 nM.

For Cc1ccc(-n2nc(C(C)(C)C)cc2NC(=O)N[C@@H]2C[C@@H](Oc3ccc4nnc(C(C)C)n4c3)c3ccccc32)cc1 [Example 12, 1-(5-tert-Butyl-2-p-tolyl-2H-pyrazol-3-yl)-3-[(1R,3R)-3-(3-isopropyl[1,2,4]triazolo[4,3a]pyridin-6-yloxy)-indan-1-yl]urea], the IC50 [1] was 100 to 500 nM.

In the case of Cc1ccc(-n2nc(C(C)(C)C)cc2NC(=O)N[C@H]2C[C@H](Oc3ccc4nnc(C(C)C)n4c3)c3ccccc32)cc1 [Example 13, 1-(5-tert-Butyl-2-p-tolyl-2H-pyrazol-3-yl)-3-[(1S,3S)-3-(3-isopropyl-[1,2,4]triazolo[4,3-a]pyridin-6-yloxy)-indan-1-yl]-urea], the IC50 [1] is reported as < 10 nM.

Cc1ccc(-n2nc(C(C)(C)C)cc2NC(=O)N[C@@H]2C[C@H](Oc3ccc4nnc(C(C)C)n4c3)c3ccccc32)cc1 [Example 14, 1-(5-tert-Butyl-2-p-tolyl-2H-pyrazol-3-yl)-3-[(1R,3S)-3-(3-isopropyl-[1,2,4]-triazolo[4,3-a]pyridin-6-yloxy)-indan-1-yl]-urea] gave an IC50 [1] of 500 to 7000 nM.

Cc1ccc(-n2nc(C(C)(C)C)cc2NC(=O)N[C@H]2C[C@@H](Oc3ccc4nnc(C(C)C)n4c3)c3ccccc32)cc1 [Example 15, 1-(5-tert-Butyl-2-p-tolyl-2H-pyrazol-3-yl)-3-[(1S,3R)-3-(3-isopropyl-[1,2,4]triazolo[4,3-a]pyridin-6-yloxy)-indan-1-yl]-urea] showed an IC50 [1] of 500 to 7000 nM.

For CC(C)c1nnc2ccc(O[C@H]3CC[C@H](NC(=O)Nc4cc(C(C)(C)C)on4)c4ccccc43)cn12 [Example 16, 1-(5-tert-Butyl-isoxazol-3-yl)-3-[(1S,4S)-4-(3-isopropyl-[1,2,4]-triazolo[4,3-a]pyridin-6-yloxy)-1,2,3,4-tetrahydro-naphthalen-1-yl]-urea], the IC50 [1] was < 10 nM.

COc1c(NC(=O)N[C@H]2CC[C@H](Oc3ccc4nnc(C(C)C)n4c3)c3ccccc32)cc(C(C)(C)C)cc1NS(C)(=O)=O [Example 17, N-(5-tert-Butyl-3-{3-[(1S,4S)-4-(3-isopropyl-[1,2,4]triazolo[4,3-a]pyridin-6-yloxy)-1,2,3,4-tetrahydro-naphthalen-1-yl]-ureido}-2-methoxy-phenyl)-methanesulfonamide] was tested, and the IC50 [1] was < 10 nM.

With Cc1ccc(-n2nc(C(C)(C)C)cc2NC(=O)N[C@H]2CC[C@H](Oc3ccc4nnc(-c5ccccc5SCCO)n4c3)c3ccccc32)cc1 [Example 20, 1-(5-tert-Butyl-2-p-tolyl-2H-pyrazol-3-yl)-3-((1S,4S)-4-{3-[2-(2-hydroxy-ethylsulfanyl)-phenyl]-[1,2,4]triazolo[4,3-a]pyridin-6-yloxy}-1,2,3,4-tetrahydro-naphthalen-1-yl)-urea] the IC50 [1] was < 10 nM.

For COCC(=O)Nc1cc(CO[C@H]2CC[C@H](NC(=O)Nc3cc(C(C)(C)C)nn3-c3ccc(C)cc3)c3ccccc32)ccn1 [Example 22, N-(4-{(1S,4S)-4-[3-(5-tert-Butyl-2-p-tolyl-2H-pyrazol-3-yl)-ureido]-1,2,3,4-tetrahydro-naphthalen-1-yloxymethyl}-pyridin-2-yl)-2-methoxy-acetamide], the IC50 [1] was < 10 nM.
